In PubChem BioAssay (NCI):
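In this assay, cells in 96-well plates receive the compound at five concentrations for 48 hours. Endpoints are linearly interpolated between the surrounding concentrations. TGI marks complete inhibition of growth.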

How the values were obtained:
Test in all cases: NCI tumour cell line growth inhibition, 48 h
786-0 renal = tested on: 786-0 renal
A498 renal = tested on: A498 renal
A549 NSCLC = tested on: A549 NSCLC
ACHN renal = tested on: ACHN renal
CAKI-1 renal = tested on: CAKI-1 renal
CCRF-CEM leukemia = tested on: CCRF-CEM leukemia
COLO 205 colon = tested on: COLO 205 colon
DLD-1 colon = tested on: DLD-1 colon
DMS 114 small cell lung = tested on: DMS 114 small cell lung
DMS 273 small cell lung = tested on: DMS 273 small cell lung
EKVX NSCLC = tested on: EKVX NSCLC
HCC-2998 colon = tested on: HCC-2998 colon
HCT-116 colon = tested on: HCT-116 colon
HCT-15 colon = tested on: HCT-15 colon
HL-60(TB) leukemia = tested on: HL-60(TB) leukemia
HOP-18 NSCLC = tested on: HOP-18 NSCLC
HOP-62 NSCLC = tested on: HOP-62 NSCLC
HOP-92 NSCLC = tested on: HOP-92 NSCLC
HT29 colon = tested on: HT29 colon
IGROV1 ovarian = tested on: IGROV1 ovarian
K-562 leukemia = tested on: K-562 leukemia
KM12 colon = tested on: KM12 colon
KM20L2 colon = tested on: KM20L2 colon
LOX IMVI melanoma = tested on: LOX IMVI melanoma
LXFL 529 NSCLC = tested on: LXFL 529 NSCLC
M14 melanoma = tested on: M14 melanoma
M19-MEL melanoma = tested on: M19-MEL melanoma
MALME-3M melanoma = tested on: MALME-3M melanoma
MOLT-4 leukemia = tested on: MOLT-4 leukemia
NCI-H226 lung = tested on: NCI-H226 lung
NCI-H23 lung = tested on: NCI-H23 lung
NCI-H460 lung = tested on: NCI-H460 lung
NCI-H522 lung = tested on: NCI-H522 lung
OVCAR-3 ovarian = tested on: OVCAR-3 ovarian
OVCAR-4 ovarian = tested on: OVCAR-4 ovarian
OVCAR-5 ovarian = tested on: OVCAR-5 ovarian
OVCAR-8 ovarian = tested on: OVCAR-8 ovarian
RPMI-8226 leukemia = tested on: RPMI-8226 leukemia
RXF 393 renal = tested on: RXF 393 renal
RXF-631 renal = tested on: RXF-631 renal
SF-268 CNS = tested on: SF-268 CNS
SF-295 CNS = tested on: SF-295 CNS
SF-539 CNS = tested on: SF-539 CNS
SK-MEL-2 melanoma = tested on: SK-MEL-2 melanoma
SK-MEL-28 melanoma = tested on: SK-MEL-28 melanoma
SK-OV-3 ovarian = tested on: SK-OV-3 ovarian
SN12C renal = tested on: SN12C renal
SNB-19 CNS = tested on: SNB-19 CNS
SNB-75 CNS = tested on: SNB-75 CNS
SNB-78 CNS = tested on: SNB-78 CNS
SW-620 colon = tested on: SW-620 colon
TK-10 renal = tested on: TK-10 renal
U251 CNS = tested on: U251 CNS
UACC-257 melanoma = tested on: UACC-257 melanoma
UACC-62 melanoma = tested on: UACC-62 melanoma
UO-31 renal = tested on: UO-31 renal

Measured: TGI

Cn1ccnc1CCc1ccc(Cl)cc1Cl
> 100 µM: all assays above
